The text below walks through data of patent US10131644B2, “Aryl sultam derivatives as RORc modulators” (Genentech, Inc., priority 2014, dated 2018).

Each structure is given as a SMILES string. pIC50: −log10 of the molar value.

The target of this assay is T1, RORc (Homo sapiens, UniProt P51449).
T1 sequence (P51449 269-508 limits assumed): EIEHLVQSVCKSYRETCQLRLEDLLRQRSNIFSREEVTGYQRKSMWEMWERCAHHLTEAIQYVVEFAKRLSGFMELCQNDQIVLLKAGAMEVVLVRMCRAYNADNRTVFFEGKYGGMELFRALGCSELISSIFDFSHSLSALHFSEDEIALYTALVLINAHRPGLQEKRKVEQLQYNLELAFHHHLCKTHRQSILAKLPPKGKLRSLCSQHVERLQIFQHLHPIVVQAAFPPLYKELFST
The experiment in a line: In vitro RORc ligand binding assay (25-[3H]hydroxycholesterol displacement). To be noted: IC50, IC50 values for RORc; unit inferred.
Regarding `C[C@H]1CC[C@H](c2ccccc2)S(=O)(=O)N1Cc1ccc([C@]2(C(=O)N(C)C)CC[C@H](n3cnnc3)CC2)cc1` [Example 16, 1-[4-((3S,6R)-3-Methyl-1,1-dioxo-6-phenyl-[1,2]thiazinan-2-ylmethyl)-phenyl]-4-[1,2,4]triazol-4-yl-cyclohexanecarboxylic acid dimethylamide], the pIC50 (usually the negative decadic logarithm of the IC50, by convention in mol/L) was 5.62.

With `CCOC(=O)CCC1(c2cc(F)c(CN3[C@@H](C)CC[C@H](c4ccccc4)S3(=O)=O)cc2F)CC1` [Compound 140, ethyl 3-[1-[2,5-difluoro-4-[[(3S,6R)-3-methyl-1,1-dioxo-6-phenyl-thiazinan-2-yl]methyl]phenyl]cyclopropyl]propanoate], the pIC50 was 7.34.

Molecule `C[C@H]1CC[C@H](c2ccccc2)S(=O)(=O)N1Cc1ccc(C2([C@@H](O)CCO)CCOCC2)cc1F` [Compound 117, (1S)-1-[4-[3-fluoro-4-[[(3S,6R)-3-methyl-1,1-dioxo-6-phenyl-thiazinan-2-yl]methyl]phenyl]tetrahydropyran-4-yl]propane-1,3-diol] showed a pIC50 of 7.45.

`COC(=O)[C@]1(c2ccc(CN3[C@@H](C)CC[C@H](c4ccccc4)S3(=O)=O)cc2)CC[C@@H](n2cnnc2)CC1` [Example 12, 1-[4-((3S,6R)-3-Methyl-1,1-dioxo-6-phenyl-[1,2]thiazinan-2-ylmethyl)-phenyl]-4-[1,2,4]triazol-4-yl-cyclohexanecarboxylic acid methyl ester] gave a pIC50 of 6.20.

In turn, `CNC(=O)COC1(c2cc(F)c(CN3[C@@H](C)CC[C@H](c4ccccc4)S3(=O)=O)cc2F)CCOCC1` [Compound 154, 2-[4-[2,5-difluoro-4-[[(3S,6R)-3-methyl-1,1-dioxo-6-phenyl-thiazinan-2-yl]methyl]phenyl]tetrahydropyran-4-yl]oxy-N-methyl-acetamide] gave a pIC50 of 8.24.

As for `C[C@H]1CC[C@H](c2ccccc2)S(=O)(=O)N1Cc1cc(F)c(C2(CO)CCC(n3cnnc3)CC2)cc1F` (stereo partly drawn) [Compound 133, [1-[2,5-difluoro-4-[[(3S,6R)-3-methyl-1,1-dioxo-6-phenyl-thiazinan-2-yl]methyl]phenyl]-4-(1,2,4-triazol-4-yl)cyclohexyl]methanol], the pIC50 is 8.28.

The molecule `CCOC(=O)/C=C/C1(c2ccc(CN3[C@@H](C)CC[C@H](c4ccccc4)S3(=O)=O)c(F)c2)CC1` [Compound 114, ethyl (E)-3-[1-[3-fluoro-4-[[(3S,6R)-3-methyl-1,1-dioxo-6-phenyl-thiazinan-2-yl]methyl]phenyl]cyclopropyl]prop-2-enoate] showed a pIC50 of 7.27.

As for `C[C@H]1CC[C@H](c2ccccc2)S(=O)(=O)N1Cc1cc(F)c(C2(C(N)=O)CC2)cc1F` [Compound 125, 1-[2,5-difluoro-4-[[(3S,6R)-3-methyl-1,1-dioxo-6-phenyl-thiazinan-2-yl]methyl]phenyl]cyclopropane-carboxamide], the pIC50 was 6.46.

Regarding `C[C@H]1CC[C@H](c2ccccc2)S(=O)(=O)N1Cc1ccc([C@]2(C(=O)O)CC[C@H](n3cnnc3)CC2)cc1` [Example 13, 1-[4-((3S,6R)-3-Methyl-1,1-dioxo-6-phenyl-[1,2]thiazinan-2-ylmethyl)-phenyl]-4-[1,2,4]triazol-4-yl-cyclohexane-carboxylic acid], the pIC50 was 5.57.

For the molecule `CNC(=O)COC1(c2cc(F)c(CN3[C@@H](C)CC[C@H](c4ccccc4)S3(=O)=O)cc2F)COC1` [Compound 177, 2-[3-[2,5-difluoro-4-[[(3S,6R)-3-methyl-1,1-dioxo-6-phenyl-thiazinan-2-yl]methyl]phenyl]oxetan-3-yl]oxy-N-methyl-acetamide], the pIC50 is 8.36.

In turn, `C[C@H]1CC[C@H](c2ccccc2)S(=O)(=O)N1Cc1ccc(C2(NC[C@@H](O)CO)CCOCC2)cc1F` [Compound 108] gave a pIC50 of 7.30.

The molecule `CC(=O)N[C@H]1CC[C@](C#N)(c2ccc(CN3[C@@H](C)CC[C@H](c4ccccc4)S3(=O)=O)c(F)c2)CC1` [Compound 34, N-{4-Cyano-4-[3-fluoro-4-((3S,6R)-3-methyl-1,1-dioxo-6-phenyl-[1,2]thiazinan-2-ylmethyl)-phenyl]-cyclohexyl}-acetamide] showed a pIC50 of 5.64.
